Measurements as given in paper PMC3236808 (2011).

Target: PRMT1 (Rattus norvegicus, UniProt Q63009)
Test: scintillation proximity assay of 3H-SAM methylation of biotinylated H4 peptide
Format: biochemical

PRMT1, sequence (Q63009 whole entry): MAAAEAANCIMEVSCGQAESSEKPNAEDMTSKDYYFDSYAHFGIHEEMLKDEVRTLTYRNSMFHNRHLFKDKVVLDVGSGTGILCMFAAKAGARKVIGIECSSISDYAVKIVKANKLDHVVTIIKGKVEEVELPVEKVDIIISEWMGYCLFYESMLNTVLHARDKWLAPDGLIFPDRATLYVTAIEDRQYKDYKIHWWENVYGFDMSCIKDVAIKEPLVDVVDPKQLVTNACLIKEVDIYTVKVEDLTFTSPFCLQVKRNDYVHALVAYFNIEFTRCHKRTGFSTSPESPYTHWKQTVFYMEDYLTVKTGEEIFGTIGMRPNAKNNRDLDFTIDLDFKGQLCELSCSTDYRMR

- IC50: 300 nM
SMILES: Nc1ncnc2c1ncn2[C@@H]1O[C@H](CSCC[C@H](N)C(=O)O)[C@@H](O)[C@H]1O [SAH, S-adenosyl-L-homocysteine]
